From patent publication US4256462A, “Method and composition for determination of n-nitrosamines” (University of Iowa Research Foundation, priority 1979, dated 1981)

Experiment: Denitrosation reaction time, iodo vs bromo salts
Settings: sodium iodide reagent
Description: Particularly for the sodium iodide salt, the reaction will occur within one minute, whereas, when bromo salts are substituted, the reaction times are considerably longer, such as five minutes.

In the case of `[I-].[Na+]` [sodium iodide], the reaction time is reported as “one”.
